Results on 13 molecules are retold here after paper PMC7024391, “Trypanocidal Activity of Flavanone Derivatives” (Molecules, 2020).

The subject of data set [1] is Trypanosoma cruzi (amastigotes and trypomastigotes), Tulahuen strain. The data set can be described thus: Anti-Trypanosoma cruzi activity assay (amastigotes and trypomastigotes) in infected L929 cells, beta-galactosidase reporter. It counts as cell-based. The settings on record: Trypanosoma cruzi, 96 h incubation, ± 0.2, read-out: Trypanocide IC50(μM) ± 0.2. As to the method: Flavanone derivatives were evaluated for anti-T. cruzi activity against the intracellular forms of the parasite. Although the use of epimastigotes present in the midgut vector may be utilized for initial screening, we have instead opted for the simultaneous use of trypomastigote and intracellular amastigotes forms that are present during both acute and chronic phases of the disease. This approach is in accordance with the Drugs for Neglected Diseases Initiative guidelines (DNDi). Moreover, it also has the advantage of evaluating bioactive compounds in infected cells while at the same time monitoring their effects on both the relevant forms of the parasite in the same system. Benznidazole was used as a positive control against T. cruzi and cytotoxicity was determined in mammalian L929 cells (Table 1). The bioavailability profile of the flavanones was evaluated by applying the Lipinski rule and data related to the risk of toxicity (mutagenicity, tumorigenicity, irritability, and effects on the reproductive system) carried out through online programs “Molinspiration” and “OSIRIS property explorer” (Table 1). […] Nevertheless, this preliminary result motivated us to investigate other analogs bearing substituents in order to improve potency and selectivity. […] Moreover, the selectivity of 2d was almost 4 times greater than 2a. The importance of methoxy substituents for trypanocidal activity has been noted in other studies. […] These compounds resembled more closely the chemical structure of the trypanocidal natural product (brevifolin carboxylate) that these structures were based on. Some enhancement in the trypanocidal activity of hybrid coumarin-chalcone compounds was also noted when the methoxy groups were introduced into either the 2 or 5 positions of the benzene ring. The inclusion of a pyridine moiety in compound 2e was supported by previous reports describing the anti-T. cruzi activity of 2-pyridyl derivatives and their capacity to inhibit cruzain catalytic activity. […] No improvements in anti-T. cruzi activity were also observed for flavanones substituted at the benzoyl moiety (2g–2o and 2v–2x). […] The physicochemical drug descriptors of the molecular properties for the synthesized compounds were calculated by Molinspiration software (Table 1). The majority of the tested compounds satisfy the Lipinski rule with no violations and therefore displaying potentially good bioavailability. There were no linear correlations observed between molecular hydrophobicity and bioactivity.
The in vitro anti-T. cruzi activity was evaluated on L929 cells (mouse fibroblasts) infected with Tulahuen strain of the parasite expressing the Escherichia coli β-galactosidase as reporter gene. Briefly, for the bioassay, 4000 L929 cells were added to each well of a 96-well microtiter plate. After an overnight incubation, 40,000 trypomastigotes were added to the cells and incubated for 2 h. Then, the medium containing extracellular parasites were replaced with 200 μL of fresh medium and the plate was incubated for an additional 48 h to establish the infection. For IC50 determination, the cells were exposed to each synthesized compound at serial decreasing dilutions and the plate was incubated for 96 h. After this period, 50 μL of 500 μM chlorophenol red beta-D-galactopyranoside (CPRG) in 0.5% Nonidet P40 was added to each well, and the plate was incubated for 16–20 h, after which the absorbance at 570 nm was measured. Controls with uninfected cells, untreated infected cells, infected cells treated with Benznidazole at 3.8 μM (positive control) or DMSO 1% were used. The results were expressed as the percentage of T. cruzi growth inhibition in compound-tested cells as compared to the infected cells and untreated cells. The IC50 values were calculated by linear interpolation. Quadruplicates were run in the same plate, and the experiments were repeated at least once.

A further data set concerns L929 cells. The data set is described as follows: In vitro cytotoxic test on uninfected L-929 cells (alamarBlue). It counts as cell-based, mouse. The settings on record: CC50 L929 / IC50 T. cruzi. As to the method: (§1) The active compounds were tested in vitro for determination of cellular toxicity against uninfected L-929 cells using the alamarBlue® dye. The cells were exposed to compounds at increasing concentrations starting at IC50 value for T. cruzi. After 96 h of incubation with the tested compounds, the alamarBlue® was added and the absorbance at 570 and 600 nm measured after 4–6 h. The cell viability was expressed as the percentage of difference in the reduction between treated and untreated cells. IC50 values were calculated by linear interpolation, and the selectivity index (SI) was determined based on the ratio of the IC50 value in the host cell divided by the IC50 value of the parasite. Quadruplicates were run in the same plate, and the experiments were repeated at least once.

Assay in data set [2]: as above
It counts as cell-based, mouse. The settings on record: mouse, uninfected L-929 cells; mammalian L929 cells, 96 h, alamarBlue; ± 2.0; read-out: Cytotoxicity CC50(μM) ± 2.0. Here is the method: as §1
In general terms: Alamar Blue is a resazurin reagent that responds to reducing activity.

For data set [3], the system named is trypomastigote form of T. cruzi. Further details: method as in Ambrozin et al. To be noted: ref Ambrozin et al.; cited from earlier work.
The subject of data set [4] is T. cruzi (Trypomastigote). Further details: method as in Grecco et al. [9],[10],[11],[12]. To be noted: ref Grecco et al. [9],[10],[11],[12]; cited from earlier work.
Data set [5] relates to T. cruzi (Trypomastigote). Further details: method as in Ganapaty et al. [8]. The settings on record: ref Ganapaty et al. [8]; cited from earlier work.

SMILES strings stand for the structures. pIC50: −log10 of the molar value. Where two headings read alike, the source gives them in different places.

`COc1ccc2c(c1)C(=O)[C@@H](C(=O)c1ccccc1)[C@H](c1ccccc1Cl)O2` (relative stereo) [Compound 2s, trans-3-benzoyl-2-(2-chlorophenyl)-6-methoxychroman-4-one]: the IC50 (commonly the concentration at which inhibition is half-maximal) in data set [1] was found to be 18.4 µM. In addition, the “SI (selectivity index calculated from CC50/IC50)” value in the data set on L929 cells was 5.5. Besides, the CC50 (as a rule, the concentration giving 50% cytotoxicity) at 96 h in data set [2] was 102 µM.
With `O=C(c1ccccc1)[C@@H]1C(=O)c2cc(Cl)ccc2O[C@H]1c1ccccc1` (relative stereo) [Compound 2t, trans-3-benzoyl-6-chloro-2-phenylchroman-4-one], the IC50 in data set [1] worked out at 23.2 µM. In addition, the “SI (selectivity index calculated from CC50/IC50)” value in the data set on L929 cells is recorded as 9.5. Also, in data set [2], the CC50 at 96 h turned out to be 221 µM.
Regarding `COc1ccc([C@@H]2Oc3ccc(Cl)cc3C(=O)[C@H]2C(=O)c2ccccc2)cc1` (relative stereo) [Compound 2u, trans-3-benzoyl-6-chloro-2-(4-methoxyphenyl)chroman-4-one], the IC50 in data set [1] stood at 59.2 µM. Moreover, the “SI (selectivity index calculated from CC50/IC50)” value with L929 cells is recorded as 3.5. Also, in data set [2], the CC50 at 96 h is 205 µM.
With `O=C(c1ccccc1)[C@@H]1C(=O)c2ccccc2O[C@H]1c1ccco1` (relative stereo) [Compound 2y, trans-3-benzoyl-2-(furan-2-yl)chroman-4-one], in data set [1], the IC50 amounted to 114 µM. The “SI (selectivity index calculated from CC50/IC50)” value in the data set on L929 cells is 4.4. The CC50 at 96 h in data set [2] was 503 µM.
As for `O=C(c1ccccc1)[C@@H]1C(=O)c2ccccc2O[C@H]1c1ccc([N+](=O)[O-])o1` (relative stereo) [Compound 2z, trans-3-benzoyl-2-(5-nitrofuran-2-yl)chroman-4-one], the IC50 in data set [1] was determined as 2.6 µM. Besides, the “SI (selectivity index calculated from CC50/IC50)” value in the data set with L929 cells is 10.6. Besides, in data set [2], the CC50 at 96 h amounted to 27.5 µM.
On to `COc1ccc2c(=O)cc(-c3ccccc3)oc2c1` [7-Methoxyflavone], for which, in data set [3], the pIC50 (as a rule, the negative decadic logarithm of the IC50, by convention in mol/L) is 2.51.
Turning to `CCC1(C(=O)c2ccccc2)C(=O)c2ccccc2OC1c1ccccc1` (stereo not drawn) [Compound 4, 3-Benzoyl-3-ethyl-2-phenylchroman-4-one], the IC50 in data set [1] was 13.2 µM. Besides, in the data set with L929 cells, the “SI (selectivity index calculated from CC50/IC50)” value is listed as 34.03. Also, the CC50 at 96 h in data set [2] worked out at 449 µM.
`c1ccc(-c2n[nH]c3c2C(c2ccccc2)Oc2ccccc2-3)cc1` (stereo not drawn) [Compound 5, 3,4-diphenyl-1,4-dihydrochromeno[4,3-c]pyrazole]: the IC50 in data set [1] came to 8.3 µM. The “SI (selectivity index calculated from CC50/IC50)” value with L929 cells is given as 4.6. In addition, the CC50 at 96 h in data set [2] stood at 38.6 µM.
As for `O=c1cc(-c2ccccc2)oc2ccccc12` [Flavone], the pIC50 in data set [3] is 2.02.
Turning to `COc1c(O)cc2oc(-c3ccc(O)cc3)cc(=O)c2c1O` [Hispidulin], the pIC50 in data set [4] is 3.57.
As for `COc1ccc(-c2cc(=O)c3c(O)c(OC)c(O)cc3o2)cc1` [Pectolinaringenin], the pIC50 in data set [4] was 3.79.
Take `COc1cc2c(cc1O)OC[C@H](c1cc3c(cc1O)OCO3)[C@H]2O` [Pumilanol]: the pIC50 in data set [5] was 5.00.
With `COc1cc(O)c2c(c1)O[C@H](c1ccc(O)cc1)CC2=O` [Sakuranetin], the pIC50 in data set [4] is 4.15.
